Experiments:
[1] = molecular target: Mitogen-activated protein kinase 8 (Homo sapiens, UniProt P45983); experiment: Inhibition of JNK1-mediated ATF2 phosphorylation after 1 hr by ELISA
A549 [2] = experiment: Antiproliferative activity against human A549 cells after 72 hrs by WST8 assay; type: functional, cell-based; conditions: A549, 72 h
[3] = molecular target: Receptor-type tyrosine-protein kinase FLT3 (Homo sapiens) (UniProt P36888); experiment: Inhibition of FLT3 at 1 uM
[4] = system: T1, Receptor-type tyrosine-protein kinase FLT3 (Homo sapiens), P36888 [D835Y]; experiment: Inhibition of FLT3 D835Y mutant at 1 uM
T1 sequence (whole entry): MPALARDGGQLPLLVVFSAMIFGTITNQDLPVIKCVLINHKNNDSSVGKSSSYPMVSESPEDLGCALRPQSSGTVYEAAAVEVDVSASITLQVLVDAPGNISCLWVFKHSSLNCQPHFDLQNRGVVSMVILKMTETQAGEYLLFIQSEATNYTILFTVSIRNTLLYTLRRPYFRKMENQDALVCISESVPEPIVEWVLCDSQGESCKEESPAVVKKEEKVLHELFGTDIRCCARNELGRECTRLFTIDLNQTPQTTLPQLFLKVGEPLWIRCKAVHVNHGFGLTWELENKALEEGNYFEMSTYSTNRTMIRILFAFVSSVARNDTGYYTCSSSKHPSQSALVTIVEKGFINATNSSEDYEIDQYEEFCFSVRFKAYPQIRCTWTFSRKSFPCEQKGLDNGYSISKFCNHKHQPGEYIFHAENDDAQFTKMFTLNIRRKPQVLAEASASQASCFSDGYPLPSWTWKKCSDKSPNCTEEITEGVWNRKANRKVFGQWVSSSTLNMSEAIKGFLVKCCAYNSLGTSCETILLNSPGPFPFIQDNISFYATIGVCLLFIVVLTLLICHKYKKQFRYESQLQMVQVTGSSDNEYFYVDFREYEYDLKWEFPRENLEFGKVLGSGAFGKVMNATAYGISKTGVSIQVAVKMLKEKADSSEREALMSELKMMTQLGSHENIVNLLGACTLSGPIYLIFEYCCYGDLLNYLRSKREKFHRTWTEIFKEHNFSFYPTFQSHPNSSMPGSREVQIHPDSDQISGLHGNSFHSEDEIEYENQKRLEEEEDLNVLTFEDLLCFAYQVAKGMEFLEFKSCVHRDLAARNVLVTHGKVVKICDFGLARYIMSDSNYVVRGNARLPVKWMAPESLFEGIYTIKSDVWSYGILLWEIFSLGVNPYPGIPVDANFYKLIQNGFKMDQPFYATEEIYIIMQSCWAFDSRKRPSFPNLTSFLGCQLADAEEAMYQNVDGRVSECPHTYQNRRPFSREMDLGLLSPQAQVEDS

[5] = Cmax in mouse at 25 mg/kg, po; type: ADME, organism-based; parameters: dose 25 mg/kg, route oral; conditions: in vivo
[6] = Tmax in mouse at 25 mg/kg, po; type: ADME, organism-based; parameters: dose 25 mg/kg, route oral; conditions: in vivo
[7] = AUC in mouse at 25 mg/kg, po; type: ADME, organism-based; parameters: dose 25 mg/kg, route oral; conditions: plasma
A549 [8] = experiment: Antitumor activity against human A549 cells xenografted in po dosed BALB/cA Jcl-nu/nu mouse assessed as tumor growth inhibition administered QD for 19 days; type: functional, organism-based
A549 [9] = experiment: Antitumor activity against human A549 cells xenografted in BALB/cA Jcl-nu/nu mouse assessed as tumor growth inhibition at 100 mg/kg, po administered QD for 19 days relative to vehicle-treated control; conditions: 456 h, read-out: TGI
Mus musculus = experiment: Toxicity in BALB/cA Jcl-nu/nu mouse xenografted with human A549 cells assessed as body weight loss at 100 mg/kg, po administered QD for 19 days; type: organism-based; parameters: dose 100 mg/kg, route oral; conditions: in vivo, 456 h

Sequence of Mitogen-activated protein kinase 8 (P45983 whole entry): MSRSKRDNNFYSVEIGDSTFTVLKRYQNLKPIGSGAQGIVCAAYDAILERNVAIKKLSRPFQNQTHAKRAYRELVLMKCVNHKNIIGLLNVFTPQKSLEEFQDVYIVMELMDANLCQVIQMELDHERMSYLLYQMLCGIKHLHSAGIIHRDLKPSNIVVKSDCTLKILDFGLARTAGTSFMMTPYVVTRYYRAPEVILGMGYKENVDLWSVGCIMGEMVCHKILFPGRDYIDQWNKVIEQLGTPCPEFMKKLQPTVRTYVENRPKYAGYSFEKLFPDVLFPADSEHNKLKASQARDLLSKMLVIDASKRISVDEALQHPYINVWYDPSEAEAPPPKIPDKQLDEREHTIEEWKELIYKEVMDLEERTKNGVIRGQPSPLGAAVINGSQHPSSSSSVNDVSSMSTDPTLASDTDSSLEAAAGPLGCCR

| Structure (SMILES) | IC50 [1] [nM] | IC50 (A549 [2]) [µM] | further results |
| --- | --- | --- | --- |
| CCOc1nc(Nc2ccc(C(N)=O)cc2)cc(N)c1C#N | 190 | 9.5 |  |
| CCOc1nc(Nc2ccccc2)cc(N)c1C#N | 1040 |  |  |
| CC(C)(C)Nc1nc(Nc2ccc(C(N)=O)cc2)cc(N)c1C#N | 231 | 0.84 | inhibition [3]: 50%; inhibition [4]: 86%; Cmax [5]: 3540 ng/mL; Tmax [6]: 15 min; AUC [7]: 6600 ng·h/mL; TGI (A549 [8]): Dose-dependent effect; inhibition in vivo at 100 mg/kg (A549 [9]): 47%; Activity (Mus musculus): Non-toxic |
| CCOc1nc(NCCc2ccccc2)cc(N)c1C#N | > 100000 |  |  |
| CCOc1nc(NC(=O)Cc2ccccc2)cc(N)c1C#N | 260 |  |  |
| CCOc1nc(C(=O)NCc2ccccc2)cc(N)c1C#N | 350 |  |  |

From ChEMBL document CHEMBL2086293, “Diaminopyridine-based potent and selective mps1 kinase inhibitors binding to an unusual flipped-Peptide conformation” (ACS Med Chem Lett, 2012)
